As a reminder, the inhibition is the percentage by which the read-out fell short of the control.

Where two headings read alike, the source gives them in different places.

The record followed here is patent US10865194B2, “Therapeutically active bicyclic-sulphonamides and pharmaceutical compositions” (FONDAZIONE ISTITUTO ITALIANO DI TECNOLOGIA, priority 2017, dated 2020).

One assay concerns Neuro2A cells. The assay is described as follows: Inhibition of ROS production in Neuro2A cells (H2O2-induced, DCFH-DA fluorescence). The note with it: for Inhibition of ROS production in neuro 2A cells, 5 μM (inhibition) / inhibition at 5 µM: compound 5 μM; for Inhibition of ROS production in neuro 2A cells, 10 μM (inhibition) / inhibition at 10 µM: compound 10 μM; for inhibition at 5 µM / inhibition at 10 µM: Mus musculus, N2a; for inhibition at 5 µM: ROS induced with 0.2 mM H2O2, read-out: Inhibition of ROS production in neuro 2A cells, 5 μM (inhibition); for inhibition at 10 µM: ROS induced with 0.2 mM H2O2, read-out: Inhibition of ROS production in neuro 2A cells, 10 μM (inhibition). It is filed as cell-based. The procedure:
The experiments carried out to evaluate the inhibition of ROS production using the compounds of the invention were based on the method reported by Danli W. and Patricia Yotnda in Production and Detection of Reactive Oxygen Species (ROS) in Cancers, J. Vis Exp. 2011; (57):3357.
Cultured brain Neuroblastoma2A (Neuro2A) were used.
15.000 Cells were plated in a 96 well plate with black walls and transparent flat bottom in 100 μL of DMEM complete medium (including 10% fetal bovine serum, […] L-Glutamine) containing compounds at indicated concentrations or 0.5% dimethylsulfoxide (DMSO), and kept overnight at 37° C. to allow them to attach to the plate. The following day the culture medium was removed, cells were washed with 100 μl of Phosphate Buffer Saline, pH 7.4 (PBS) and loaded with 100 μL of PBS containing 10 μM of dichloro-dihydro-fluorescein diacetate (DCFH-DA) and compounds at the indicated concentrations (or DMSO 0.5%) for additional 45 min at 37° C. DCFH-DA was prepared as a 20 mM stock in (DMSO) and kept in the dark at 4° C.
ROS production was induced by exposure with 0.2 mM H2O2 dissolved in 100 μl of complete DMEM medium without phenol red. Fluorescence intensity was measured at an […] wavelengths of 485/535 nm and ROS production was monitored for 2 h, at 37° C.

For the next assay, the target named is T1, human NAAA (Homo sapiens, UniProt Q02083).
T1 construct: expressed in transfected cells; host or cells: HEK-293 (stably transfected, G418 selection); enzyme-enriched lysate
T1 sequence (Q02083 126-359 limits assumed): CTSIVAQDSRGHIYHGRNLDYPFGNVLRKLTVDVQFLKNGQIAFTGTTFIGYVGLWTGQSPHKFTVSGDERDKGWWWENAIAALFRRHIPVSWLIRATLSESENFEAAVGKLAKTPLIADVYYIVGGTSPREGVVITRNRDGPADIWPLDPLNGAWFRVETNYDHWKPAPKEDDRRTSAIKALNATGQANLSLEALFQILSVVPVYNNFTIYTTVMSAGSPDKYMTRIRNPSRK
T1 sequence (Q02083 29-125 limits assumed): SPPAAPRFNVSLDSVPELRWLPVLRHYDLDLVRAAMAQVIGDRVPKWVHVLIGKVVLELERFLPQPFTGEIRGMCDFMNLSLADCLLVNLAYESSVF
The assay is described as follows: In vitro human NAAA fluorogenic assay. It is filed as biochemical. The settings on record: enzyme-enriched lysate of HEK-293 cells stably transfected with human NAAA. The protocol: Human recombinant proteins were obtained from HEK-293 stable overexpressing NAAA cell lines. Cells were grown in Dulbecco's modified Eagle medium (DMEM) containing 10% FBS, 1% penicillin/streptomycin, 1% glutamine and 500 μg/mL G418. To obtain membrane preparation cells were scraped off with cold phosphate-buffered saline (PBS) and collected by centrifugation (300×g, 7 min, 4° C.). Cell pellet were stored at −80° C. until protein preparation.
In Vitro Human NAAA Assay
Preparation of Enzyme-Enriched Lysate (h-NAAA).
HEK-293 cells stably transfected with the human NAAA coding sequences were used as enzyme source. Cell pellets were suspended in 20 mM Tris HCl (pH 7.4) with 0.32 M sucrose, sonicated and centrifuged at 800×g for 30 min at 4° C. Supernatants were then ultracentrifuged at 12,000×g for 30 min at 4° C. Pellets were re-suspended in PBS buffer (pH 7.4) and subjected to three freeze-thaw cycles at −80° C. The suspension was finally ultracentrifuged at 105,000×g for 1 h at 4° C., supematants were collected, protein concentration was measured and samples aliquoted and stored at −80° C. until use.
The results are summarized in Table 3 as follows, wherein +: IC50>2 μM; ++: 1.0 μM<IC50<2 μM; +++: IC50<1 μM: […]

The mark [1] stands for this setting: read-out: Activity h-NAAA Fluorogenic assay.

With `CCCCc1ccc(OC2CC3CCC(C2)N3S(=O)(=O)c2c(C)n[nH]c2C)cc1` [Example 03, (1R,3s,5S)-3-(4-Butylphenoxy)-8-[(3,5-dimethyl-1H-pyrazol-4-yl)sulfonyl]-8-azabicyclo[3.2.1]octane], in the assay on Neuro2A cells (ROS induced with 0.2 mM H2O2), the “Inhibition of ROS production in neuro 2A cells, 5 μM (inhibition)” value (from here on “Inhibition … 5 μM (inhibition)”) was found to be 39% and the “Inhibition of ROS production in neuro 2A cells, 10 μM (inhibition)” value (“Inhibition … 10 μM (inhibition)” for short) stood at 136%. For the same compound, the IC50 against human NAAA (Activity h-NAAA Fluorogenic assay) is greater than 2000 nM.
Consider `Cc1n[nH]c(C)c1S(=O)(=O)N1C2CCC1CC(Oc1ccc(C#N)cc1)C2` [Example 08, (1R,3r,5S)-3-(4-Cyanophenoxy)-8-[(3,5-dimethyl-1H-pyrazol-4-yl)sulfonyl]-8-azabicyclo[3.2.1]octane], for which, in the assay on Neuro2A cells (ROS induced with 0.2 mM H2O2), the “Inhibition … 5 μM (inhibition)” value was determined as 0% and the “Inhibition … 10 μM (inhibition)” value is given as 77%. Also, the IC50 at human NAAA (setting [1]) was less than 1000 nM.
In the case of `Cc1n[nH]c(C)c1S(=O)(=O)N1C2CCC1CC(Oc1ccc(C#N)cc1)C2` [Example 09, (1R,3s,5S)-3-(4-Cyanophenoxy)-8-[(3,5-dimethyl-1H-pyrazol-4-yl)sulfonyl]-8-azabicyclo[3.2.1]octane], in the assay on Neuro2A cells (ROS induced with 0.2 mM H2O2), the “Inhibition … 5 μM (inhibition)” value came to 35% and the “Inhibition … 10 μM (inhibition)” value amounted to 56%. The IC50 on human NAAA (setting [1]) is greater than 2000 nM.
With `CCCCc1ccc(OC2CC3CCC(C2)N3S(=O)(=O)c2c(C)noc2C)cc1` [Example 15, 4-[[(1R,3r,5S)-3-(4-Butylphenoxy)-8-azabicyclo[3.2.1]octan-8-yl]sulfonyl]-3,5-dimethyl-isoxazole], in the assay on Neuro2A cells, the inhibition at 5 µM turned out to be 0% and the inhibition at 10 µM was found to be 84%. On human NAAA (setting [1]), the IC50 was greater than 2000 nM.
Take `Cc1cnc(OC2CC3CCC(C2)N3S(=O)(=O)c2c(C)n[nH]c2C)cn1` [Example 36, (1R,3r,5S)-8-[(3,5-Dimethyl-1H-pyrazol-4-yl)sulfonyl]-3-(5-methylpyrazin-2-yl)oxy-8-azabicyclo[3.2.1]octane]: the IC50 at human NAAA (setting [1]) was less than 1000 nM.
Turning to `Cc1n[nH]c(C)c1S(=O)(=O)N1C2CCC1CC(Oc1cccnn1)C2` [Example 37, (1R,3r,5S)-8-[(3,5-Dimethyl-1H-pyrazol-4-yl)sulfonyl]-3-pyridazin-3-yloxy-8-azabicyclo[3.2.1]octane], the IC50 at human NAAA (setting [1]) was greater than 2000 nM.
The same measure, in the same setting: the same measure for `Cc1ccc2oc(OC3CC4CCC(C3)N4S(=O)(=O)c3c(C)n[nH]c3C)nc2c1` [Example 38, (1R,3r,5S)-8-[(3,5-Dimethyl-1H-pyrazol-4-yl)sulfonyl]-3-(2-(5-methyl)-benzoxazoloxy)-8-azabicyclo[3.2.1]octane]: less than 1000 nM; for `Cc1n[nH]c(C)c1S(=O)(=O)N1C2CCC1CC(Oc1ccc(Cl)cc1)C2` [Example 39, (1R,3r,5S)-3-(4-Chloro-phenoxy)-8-[(3,5-dimethyl-1H-pyrazol-4-yl)sulfonyl]-8-azabicyclo[3.2.1]octane]: less than 1000 nM.
As to `CCCCc1cnc(OC2CC3CCC(C2)N3S(=O)(=O)c2c(C)n[nH]c2C)cn1` [Example 40, (1R,3r,5S)-8-[(3,5-Dimethyl-1H-pyrazol-4-yl)sulfonyl]-3-[5-butylpyrazin-2-yl]oxy-8-azabicyclo[3.2.1]octane], in the assay with Neuro2A cells, the inhibition at 5 µM was found to be 19% and the inhibition at 10 µM came to 86%. Further, at human NAAA (setting [1]), the IC50 is less than 1000 nM.
With `CCOCc1cnc(OC2CC3CCC(C2)N3S(=O)(=O)c2c(C)n[nH]c2C)cn1` [Example 41, (1R,3r,5S)-8-[(3,5-Dimethyl-1H-pyrazol-4-yl)sulfonyl]-3-[5-(ethoxymethyl)pyrazin-2-yl]oxy-8-azabicyclo[3.2.1]octane], the IC50 on human NAAA (setting [1]) is less than 1000 nM.
For `Cc1n[nH]c(C)c1S(=O)(=O)N1C2CCC1CC(Oc1ccc(F)cc1)C2` [Example 42, (1R,3r,5S)-3-(4-Fluoro-phenoxy)-8-[(3,5-dimethyl-1H-pyrazol-4-yl)sulfonyl]-8-azabicyclo[3.2.1]octane], the IC50 on human NAAA (setting [1]) was less than 1000 nM.
As for `Cc1n[nH]c(C)c1S(=O)(=O)N1[C@@H]2CC[C@H]1C[C@H](Oc1cccnn1)C2` [Example 43, (1R,3s,5S)-8-[(3,5-Dimethyl-1H-pyrazol-4-yl)sulfonyl]-3-pyridazin-3-yloxy-8-azabicyclo[3.2.1]octane], the IC50 at human NAAA (setting [1]) is greater than 2000 nM.
On to `Cc1n[nH]c(C)c1S(=O)(=O)N1C2CCCC1CC(Oc1cnccn1)C2` [Example 44, (1R,3r,5S)-9-[(3,5-Dimethyl-1H-pyrazol-4-yl)sulfonyl]-3-(pyrazin-2-yloxy)-9-azabicyclo[3.3.1]nonane], for which the IC50 at human NAAA (setting [1]) was less than 1000 nM.
The same measure, in the same setting: the same measure for `Cc1n[nH]c(C)c1S(=O)(=O)N1C2CCCC1CC(Oc1cnccn1)C2` [Example 45, (1R,3s,5S)-9-[(3,5-Dimethyl-1H-pyrazol-4-yl)sulfonyl]-3-(pyrazin-2-yloxy)-9-azabicyclo[3.3.1]nonane]: greater than 2000 nM; for `Cc1n[nH]c(C)c1S(=O)(=O)N1C2COCC1CC(Oc1cnccn1)C2` [Example 46, (1R,3s,5S)-9-[(3,5-Dimethyl-1H-pyrazol-4-yl)sulfonyl]-7-pyrazin-2-yloxy-3-oxa-9-azabicyclo[3.3.1]nonane]: greater than 2000 nM.
As for `Cc1n[nH]c(C)c1S(=O)(=O)N1C2COCC1CC(Oc1cnccn1)C2` [Example 47, (1R,3r,5S)-9-[(3,5-Dimethyl-1H-pyrazol-4-yl)sulfonyl]-7-pyrazin-2-yloxy-3-oxa-9-azabicyclo[3.3.1]nonane], the IC50 at human NAAA (setting [1]) is greater than 2000 nM.
For the compound `Cc1n[nH]c(C)c1S(=O)(=O)N1C[C@H]2COC[C@@H](C1)[C@H]2Oc1cnccn1` [Example 48, (1R,5S,9r)-7-((3,5-Dimethyl-1H-pyrazol-4-yl)sulfonyl)-9-(pyrazin-2-yloxy)-3-oxa-7-azabicyclo[3.3.1]nonane], on human NAAA (setting [1]), the IC50 is greater than 2000 nM.
Consider `Cc1n[nH]c(C)c1S(=O)(=O)N1C[C@H]2COC[C@@H](C1)C2Oc1cnccn1` (stereo partly drawn) [Example 49, (1R,5S,9s)-7-((3,5-Dimethyl-1H-pyrazol-4-yl)sulfonyl)-9-(pyrazin-2-yloxy)-3-oxa-7-azabicyclo[3.3.1]nonane], for which, at human NAAA (setting [1]), the IC50 is greater than 2000 nM.
On the same count and under the same terms, for `Cc1n[nH]c(C)c1S(=O)(=O)N1C[C@H]2CC[C@@H](C1)C2Oc1cnccn1` (stereo partly drawn) [Example 50, (1R,5S,8r)-3-((3,5-Dimethyl-1H-pyrazol-4-yl)sulfonyl)-8-(pyrazin-2-yloxy)-3-azabicyclo[3.2.1]octane] the value was greater than 2000 nM.
On the same count and under the same terms, the same measure for `Cc1ccc(OC2CC3CCC(C2)N3S(=O)(=O)c2c(C)n[nH]c2C)nn1` [Example 53, (1R,3r,5S)-8-[(3,5-Dimethyl-1H-pyrazol-4-yl)sulfonyl]-3-(6-methylpyridazin-3-yl)oxy-8-azabicyclo[3.2.1]octane]: greater than 2000 nM.
For the compound `O=C(/C=C/c1ccc(O)c2c1[C@H](C(=O)O[C@H](Cc1ccc(O)c(O)c1)C(=O)O)[C@@H](c1ccc(O)c(O)c1)O2)O[C@H](Cc1ccc(O)c(O)c1)C(=O)O` [Salvianolic Acid B, Salvianolic acid B, reference compound], in the assay with Neuro2A cells (reference compound 100 μM, ROS induced with 0.2 mM H2O2), the “Inhibition of ROS production in neuro 2A cells (inhibition), reference at 100 μM” value is on record as 100%.
Regarding “(1R,3r,5S)-3-(4-Hexylphenoxy)-8-[(3,5-dimethyl-1H-pyrazol-4-yl)sulfonyl]-8-azabicyclo[3.2.1]octane [Example 19]”, the IC50 at human NAAA (setting [1]) was less than 1000 nM.
